Our source for the IC50 and AC50 values is ChEMBL document CHEMBL1201862, “PubChem BioAssay data set” (2004).

The source made the active and inactive calls. Bounds are passed on as bounds.

The target of test [1] is T1, Carboxy-terminal domain RNA polymerase II polypeptide A small phosphatase 1 (Homo sapiens, UniProt Q9GZU7).
T1 sequence (Q9GZU7 whole entry): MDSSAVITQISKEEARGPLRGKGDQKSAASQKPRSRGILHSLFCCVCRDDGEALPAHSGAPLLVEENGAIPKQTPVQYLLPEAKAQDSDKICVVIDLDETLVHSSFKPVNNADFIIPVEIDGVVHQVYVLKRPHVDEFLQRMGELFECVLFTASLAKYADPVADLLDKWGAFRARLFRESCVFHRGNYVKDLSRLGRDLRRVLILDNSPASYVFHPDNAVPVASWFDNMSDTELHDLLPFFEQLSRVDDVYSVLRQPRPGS
The test can be described thus: inhibitors of CTDSP1, concentration-response testing, biochemical assay, absorbance-based, actives from ultra-high-throughput screening (AID 540297). The class given is functional.

For test [2], the target named is T2, Tyrosine-protein phosphatase non-receptor type 22 (Homo sapiens, UniProt Q9Y2R2).
T2 sequence (Q9Y2R2 whole entry): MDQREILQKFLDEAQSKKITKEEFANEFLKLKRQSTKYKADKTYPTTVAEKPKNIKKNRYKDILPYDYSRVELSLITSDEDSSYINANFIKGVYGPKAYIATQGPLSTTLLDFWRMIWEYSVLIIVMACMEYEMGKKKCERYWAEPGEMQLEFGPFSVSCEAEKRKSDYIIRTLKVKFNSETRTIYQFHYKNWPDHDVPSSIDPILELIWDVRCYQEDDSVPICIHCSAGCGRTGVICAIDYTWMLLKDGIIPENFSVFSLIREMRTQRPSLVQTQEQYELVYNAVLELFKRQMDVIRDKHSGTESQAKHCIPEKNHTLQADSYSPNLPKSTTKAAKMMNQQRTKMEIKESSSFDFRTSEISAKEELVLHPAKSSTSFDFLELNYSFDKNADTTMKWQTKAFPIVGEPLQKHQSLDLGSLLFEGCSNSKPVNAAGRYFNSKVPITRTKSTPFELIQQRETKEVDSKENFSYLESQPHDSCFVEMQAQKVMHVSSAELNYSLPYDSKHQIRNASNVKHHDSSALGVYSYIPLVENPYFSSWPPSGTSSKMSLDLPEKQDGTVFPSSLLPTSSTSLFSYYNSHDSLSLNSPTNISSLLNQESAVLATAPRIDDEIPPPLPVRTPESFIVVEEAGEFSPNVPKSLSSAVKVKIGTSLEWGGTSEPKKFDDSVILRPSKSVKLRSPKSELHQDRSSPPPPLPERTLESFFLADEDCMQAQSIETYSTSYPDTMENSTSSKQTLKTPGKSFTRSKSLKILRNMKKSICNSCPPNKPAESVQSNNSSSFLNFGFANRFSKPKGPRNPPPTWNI
Nature of the test: LYP phosphatase inhibition for selectivity, dose response, selectivity assay for LMPTP inhibitor project, biochemical, fluorescence, LYP catalytic domain (AID 652006). It is filed as functional. The conditions noted are these: read-out: IC50_Mean.

Test [3] has as its target T3, Low molecular weight phosphotyrosine protein phosphatase (Homo sapiens, UniProt P24666).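 Further: Dose-response confirmation assay measuring inhibition of LMPTP enzyme activity by fluorescence intensity read-out.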
T3 sequence (P24666 whole entry): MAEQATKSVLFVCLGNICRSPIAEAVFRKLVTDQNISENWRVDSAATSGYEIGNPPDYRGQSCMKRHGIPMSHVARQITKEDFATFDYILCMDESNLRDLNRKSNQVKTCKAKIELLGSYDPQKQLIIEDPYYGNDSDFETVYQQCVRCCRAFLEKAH
It is filed as functional. As to conditions: read-out: IC50_Mean.

In test [4] the target is T4, Voltage-gated N-type calcium channel alpha-1B subunit/Amyloid beta A4 precursor protein-binding family A member 1 (Homo sapiens, UniProt Q00975+Q02410). The class given is protein assay.
T4 sequence (Q00975 whole entry): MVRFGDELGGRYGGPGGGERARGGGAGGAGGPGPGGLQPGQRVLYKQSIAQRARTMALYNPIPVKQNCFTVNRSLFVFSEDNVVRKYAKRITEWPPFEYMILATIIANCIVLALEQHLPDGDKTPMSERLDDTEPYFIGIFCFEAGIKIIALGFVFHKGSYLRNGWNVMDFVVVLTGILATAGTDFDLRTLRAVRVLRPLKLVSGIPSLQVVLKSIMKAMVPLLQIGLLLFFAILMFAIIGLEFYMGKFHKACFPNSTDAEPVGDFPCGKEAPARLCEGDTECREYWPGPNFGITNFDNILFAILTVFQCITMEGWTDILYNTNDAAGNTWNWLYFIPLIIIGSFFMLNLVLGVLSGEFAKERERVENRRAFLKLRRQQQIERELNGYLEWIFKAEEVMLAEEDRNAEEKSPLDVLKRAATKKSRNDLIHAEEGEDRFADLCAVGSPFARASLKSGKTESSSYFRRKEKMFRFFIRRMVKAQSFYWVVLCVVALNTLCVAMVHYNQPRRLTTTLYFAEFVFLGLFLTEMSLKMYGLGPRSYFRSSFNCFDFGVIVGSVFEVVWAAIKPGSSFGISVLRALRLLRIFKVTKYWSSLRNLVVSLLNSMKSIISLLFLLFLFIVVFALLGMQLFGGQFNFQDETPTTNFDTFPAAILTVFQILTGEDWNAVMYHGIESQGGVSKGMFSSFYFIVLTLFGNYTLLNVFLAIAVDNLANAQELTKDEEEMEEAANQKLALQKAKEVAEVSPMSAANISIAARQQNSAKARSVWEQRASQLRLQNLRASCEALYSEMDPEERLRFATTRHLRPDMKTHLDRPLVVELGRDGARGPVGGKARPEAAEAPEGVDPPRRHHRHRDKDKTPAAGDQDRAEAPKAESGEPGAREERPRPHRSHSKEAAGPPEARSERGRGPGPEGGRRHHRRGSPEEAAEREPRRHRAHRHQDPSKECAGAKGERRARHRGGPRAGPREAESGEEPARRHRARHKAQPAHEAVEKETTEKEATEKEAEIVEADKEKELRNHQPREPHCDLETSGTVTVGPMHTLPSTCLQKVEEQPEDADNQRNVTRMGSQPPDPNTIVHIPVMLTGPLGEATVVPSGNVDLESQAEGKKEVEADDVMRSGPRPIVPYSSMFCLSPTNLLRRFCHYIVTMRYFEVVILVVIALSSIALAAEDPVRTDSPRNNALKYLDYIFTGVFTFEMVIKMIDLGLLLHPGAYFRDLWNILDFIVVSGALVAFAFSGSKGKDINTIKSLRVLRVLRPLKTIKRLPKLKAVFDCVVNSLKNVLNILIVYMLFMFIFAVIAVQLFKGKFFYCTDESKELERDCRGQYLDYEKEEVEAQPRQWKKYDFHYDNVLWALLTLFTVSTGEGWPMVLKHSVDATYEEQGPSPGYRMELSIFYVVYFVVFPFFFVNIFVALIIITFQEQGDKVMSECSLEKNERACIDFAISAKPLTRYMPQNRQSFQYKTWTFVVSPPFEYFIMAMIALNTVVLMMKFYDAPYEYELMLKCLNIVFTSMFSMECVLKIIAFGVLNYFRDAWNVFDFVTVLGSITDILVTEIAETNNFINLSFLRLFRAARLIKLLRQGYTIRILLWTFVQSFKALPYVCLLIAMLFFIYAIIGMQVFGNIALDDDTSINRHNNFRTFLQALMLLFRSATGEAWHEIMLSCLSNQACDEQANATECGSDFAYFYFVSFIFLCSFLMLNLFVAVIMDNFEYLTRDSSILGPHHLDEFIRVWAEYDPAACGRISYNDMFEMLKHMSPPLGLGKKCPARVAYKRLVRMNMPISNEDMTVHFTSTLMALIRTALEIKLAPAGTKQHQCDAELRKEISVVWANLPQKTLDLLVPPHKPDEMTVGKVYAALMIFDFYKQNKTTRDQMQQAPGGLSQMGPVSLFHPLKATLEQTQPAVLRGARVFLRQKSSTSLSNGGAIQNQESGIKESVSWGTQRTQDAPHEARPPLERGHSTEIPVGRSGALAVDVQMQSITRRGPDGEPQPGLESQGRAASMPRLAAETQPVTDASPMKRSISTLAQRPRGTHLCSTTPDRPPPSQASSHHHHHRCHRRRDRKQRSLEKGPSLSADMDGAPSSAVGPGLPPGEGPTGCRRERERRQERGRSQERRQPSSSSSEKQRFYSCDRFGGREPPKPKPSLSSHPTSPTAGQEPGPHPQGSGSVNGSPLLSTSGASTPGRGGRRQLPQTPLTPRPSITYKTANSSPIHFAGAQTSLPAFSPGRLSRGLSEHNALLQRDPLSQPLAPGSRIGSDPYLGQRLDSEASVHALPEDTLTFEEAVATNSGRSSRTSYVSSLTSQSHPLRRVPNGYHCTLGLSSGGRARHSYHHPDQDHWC
T4 sequence (Q02410 whole entry): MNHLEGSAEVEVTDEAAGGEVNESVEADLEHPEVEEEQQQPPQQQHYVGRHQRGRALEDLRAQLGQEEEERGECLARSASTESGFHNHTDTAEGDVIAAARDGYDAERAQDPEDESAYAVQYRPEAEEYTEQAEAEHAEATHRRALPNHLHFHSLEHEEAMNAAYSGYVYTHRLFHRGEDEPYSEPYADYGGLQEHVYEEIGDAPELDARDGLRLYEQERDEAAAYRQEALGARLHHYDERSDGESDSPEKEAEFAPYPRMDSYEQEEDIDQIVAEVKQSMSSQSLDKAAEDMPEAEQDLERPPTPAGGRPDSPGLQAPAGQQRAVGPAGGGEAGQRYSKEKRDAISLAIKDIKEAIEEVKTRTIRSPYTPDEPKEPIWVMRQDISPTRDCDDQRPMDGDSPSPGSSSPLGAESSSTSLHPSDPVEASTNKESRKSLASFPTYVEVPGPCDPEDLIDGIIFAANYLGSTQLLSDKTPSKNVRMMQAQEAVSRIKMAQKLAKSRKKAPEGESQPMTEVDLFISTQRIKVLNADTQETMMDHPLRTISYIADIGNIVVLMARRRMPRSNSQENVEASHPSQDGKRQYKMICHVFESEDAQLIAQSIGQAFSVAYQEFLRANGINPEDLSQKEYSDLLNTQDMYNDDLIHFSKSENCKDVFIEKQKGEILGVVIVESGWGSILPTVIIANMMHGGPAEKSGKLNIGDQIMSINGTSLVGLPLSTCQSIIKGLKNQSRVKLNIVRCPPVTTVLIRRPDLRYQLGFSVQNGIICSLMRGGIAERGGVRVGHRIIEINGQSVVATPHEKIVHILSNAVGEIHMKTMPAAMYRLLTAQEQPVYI
The target of test [5] is T5, Small ubiquitin-related modifier 1 (Homo sapiens, UniProt P63165). The test can be described thus: inhibitors of SUMO1 peptide binding, dose response, biochemical, fluorescence polarization, uHTS hits (AID 624382). It is filed as functional. The conditions noted are these: read-out: IC50_Mean.
T5 sequence (P63165 whole entry): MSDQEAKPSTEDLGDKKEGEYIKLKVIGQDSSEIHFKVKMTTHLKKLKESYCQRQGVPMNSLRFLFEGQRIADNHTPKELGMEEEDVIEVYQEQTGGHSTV
For test [6], the target named is T4, Voltage-gated N-type calcium channel alpha-1B subunit/Amyloid beta A4 precursor protein-binding family A member 1. The class given is protein assay. The source holds these as a separate data set.
Test [7] has as its target T5, Small ubiquitin-related modifier 1. The test can be described thus: inhibitors of SUMO1 partner interactions, dose response, biochemical, FRET (AID 624383). The class given is functional. The conditions noted are these: read-out: IC50_Mean.
Test [8] addresses DNA (cytosine-5)-methyltransferase 1 (Homo sapiens, UniProt P26358). The test can be described thus: DNMT1 methyltransferase inhibitors, confirmation, biochemical, fluorescent molecular beacon (AID 602386). The class given is functional.
The target in test [9] is T6, DNA repair and recombination protein RAD54-like (Homo sapiens, UniProt Q92698).
T6 sequence (Q92698 whole entry): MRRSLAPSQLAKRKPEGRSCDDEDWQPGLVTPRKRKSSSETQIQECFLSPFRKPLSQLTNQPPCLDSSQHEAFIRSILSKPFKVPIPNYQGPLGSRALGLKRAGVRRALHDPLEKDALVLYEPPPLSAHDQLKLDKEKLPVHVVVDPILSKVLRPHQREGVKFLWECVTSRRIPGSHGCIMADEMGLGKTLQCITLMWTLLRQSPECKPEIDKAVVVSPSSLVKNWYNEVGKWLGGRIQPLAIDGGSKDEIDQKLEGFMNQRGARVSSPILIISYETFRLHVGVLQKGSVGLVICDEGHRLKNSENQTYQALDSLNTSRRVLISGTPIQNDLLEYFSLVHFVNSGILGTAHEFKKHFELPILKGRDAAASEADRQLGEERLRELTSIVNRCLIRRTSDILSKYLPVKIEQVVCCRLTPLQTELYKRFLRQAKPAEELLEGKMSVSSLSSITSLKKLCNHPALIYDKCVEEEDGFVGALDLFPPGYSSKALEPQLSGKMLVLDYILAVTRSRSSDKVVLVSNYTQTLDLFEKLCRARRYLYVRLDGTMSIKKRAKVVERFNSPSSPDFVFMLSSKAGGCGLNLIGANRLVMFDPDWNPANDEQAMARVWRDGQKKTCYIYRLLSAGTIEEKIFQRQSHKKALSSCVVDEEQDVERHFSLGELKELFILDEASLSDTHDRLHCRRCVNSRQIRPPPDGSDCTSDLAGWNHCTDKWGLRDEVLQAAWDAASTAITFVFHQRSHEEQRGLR
The test can be described thus: inhibitors of human RAD54 branch migration, confirmation, biochemical, fluorescence, cherry-picked samples, dose series (AID 651657). It is filed as functional.

Test [10] in a line: MDA-MB-231 cell growth inhibition, dose response, cytotoxicity control for RAD54 inhibitor project, CellTiter-Glo luminescence, cherry-pick (AID 651692). The class given is functional, cell-based.
In test [11] the target is T7, DNA repair protein RAD52 homolog (Homo sapiens, UniProt P43351).
T7 sequence (P43351 whole entry): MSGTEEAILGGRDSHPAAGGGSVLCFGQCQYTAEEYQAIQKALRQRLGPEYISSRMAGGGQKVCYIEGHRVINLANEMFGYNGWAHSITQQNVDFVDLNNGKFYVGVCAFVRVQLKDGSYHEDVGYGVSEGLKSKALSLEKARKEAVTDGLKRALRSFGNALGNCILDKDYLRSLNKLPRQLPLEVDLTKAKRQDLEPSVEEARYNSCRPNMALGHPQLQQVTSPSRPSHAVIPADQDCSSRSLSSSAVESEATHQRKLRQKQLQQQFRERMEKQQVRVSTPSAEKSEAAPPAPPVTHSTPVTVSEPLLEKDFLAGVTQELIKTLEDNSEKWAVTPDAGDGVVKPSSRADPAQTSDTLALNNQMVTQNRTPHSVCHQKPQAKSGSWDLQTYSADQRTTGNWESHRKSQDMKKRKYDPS
It is filed as functional, biochemical.

The target of another test is Beta Lactamase (Pseudomonas aeruginosa, UniProt Q932Y6). The test can be described thus: beta-lactamase reporter inhibitor potency, dose response, artefact control for NOD2-RIPK2 interaction inhibitor project, BLA reporter cells, FRET fluorescence (AID 651552). The class given is functional, cell-based.
Sequence of Beta Lactamase (Q932Y6 whole entry, the tested form may be a part): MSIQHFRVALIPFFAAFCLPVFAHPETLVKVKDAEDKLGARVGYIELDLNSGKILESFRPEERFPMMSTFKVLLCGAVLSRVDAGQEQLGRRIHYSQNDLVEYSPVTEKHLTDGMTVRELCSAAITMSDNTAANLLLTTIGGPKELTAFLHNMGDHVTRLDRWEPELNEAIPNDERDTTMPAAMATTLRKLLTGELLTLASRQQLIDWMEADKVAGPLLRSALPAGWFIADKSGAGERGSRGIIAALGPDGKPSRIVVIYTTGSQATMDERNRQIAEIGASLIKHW
The target of another test is Fatty acid synthase (Homo sapiens, UniProt P49327). The test can be described thus: FAS thioesterase domain inhibitors, dose response, biochemical, kinetic fluorescence intensity (AID 624326).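 Further: rate of fluorescence rise from hydrolysis of a fluorogenic O-methyl fluorescein ester substrate.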 The class given is functional.
Test [12] is described as follows: Fluorescence-based cell-based high throughput dose response assay for inhibitors of the interaction of nucleotide-binding oligomerization domain containing 2 (NOD2) and the receptor-interacting serine-threonine kinase 2 (RIPK2). It is filed as functional. The conditions noted are these: Homo sapiens.
Test [13] addresses Hepatocyte nuclear factor 4-alpha (Homo sapiens, UniProt P41235). It is filed as functional, cell-based.

Sequence of Hepatocyte nuclear factor 4-alpha (P41235 whole entry): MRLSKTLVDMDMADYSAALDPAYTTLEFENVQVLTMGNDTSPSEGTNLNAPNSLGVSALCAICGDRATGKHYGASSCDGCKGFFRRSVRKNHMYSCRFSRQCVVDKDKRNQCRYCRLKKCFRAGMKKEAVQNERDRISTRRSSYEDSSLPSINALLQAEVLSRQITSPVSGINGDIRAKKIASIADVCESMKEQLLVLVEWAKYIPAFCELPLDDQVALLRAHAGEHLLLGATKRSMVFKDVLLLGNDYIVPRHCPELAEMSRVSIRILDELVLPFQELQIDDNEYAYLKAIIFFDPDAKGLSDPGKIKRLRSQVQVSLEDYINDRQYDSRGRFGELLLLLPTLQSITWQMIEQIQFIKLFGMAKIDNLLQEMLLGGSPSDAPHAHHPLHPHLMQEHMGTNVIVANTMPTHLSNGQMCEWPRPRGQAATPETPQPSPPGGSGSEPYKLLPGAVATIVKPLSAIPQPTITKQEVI

As to `CCOC(=O)c1cc(-c2ccc(N3CCOCC3)cc2)nn1-c1ccccc1C(=O)O`, the IC50 was 5.98 µM (active) in [1]; 8.42 µM (active) in test [2]; 12.3 µM (active) in test [3]; > 50 µM (inactive) in [4]; > 66.6 µM (inactive) in test [5]; 5.98 µM (active) in test [6]. Besides, the IC50 in test [7] was 1.51 µM (active); in test [8] it was 6.99 µM (active).

Take `COc1cc(C(=O)NC2CCN(C)CC2)ccc1Nc1ncc2c(n1)N(C1CCCCC1)CCC(=O)N2C`: the half-maximal activity concentration (AC50) in test [9] is 12 µM (active); in test [10], 32.5 µM (active); in test [11] it was 5.86 µM (active).

For `CCOC(=O)[C@]12Cc3ccccc3[C@H]1N(C1CCCCC1)C(=O)c1cc(OC)ccc12`, the IC50 on Beta Lactamase was 48 µM (inactive); at Fatty acid synthase, 8.19 µM (active); in test [12] it was 2.28 µM (active).

For the compound `CCC(c1nc2ccccc2[nH]1)n1c(=O)c(-c2ccco2)nc2ccccc21` (stereo not given), the IC50 in [13] is 3.79 µM (active).
